Broadly, the IC50 is the concentration that gives 50% inhibition.

Among the data in US20250170136A1, “1,2,4-TRIAZIN-3(2H)-ONE COMPOUNDS FOR THE TREATMENT OF HYPERPROLIFERATIVE DISEASES” (BAYER AKTIENGESELLSCHAFT, priority 2019, published 2025) are IC50 values, retold here.

One assay relates to HeLa cells. The experiment in a line: Cell proliferation measurement (CellTiter-Glo, 72 h). The class given is cell-based. To be noted: Homo sapiens, anti-proliferation. Here is the method: (§1) The antiproliferative activity of the compounds of the general formula (I) was examined in vitro in human cancer cells. […] After 24 h, cells on one plate (0 h plate) were treated with 30 μl/cavity of CTG solution (Promega Cell Titer Glo (catalogue #G755B and G756B)) and incubated at room temperature for 10 min, and luminescence was measured by means of a VICTOR V (Perkin Elmer), in order to determine cell viability on commencement of treatment. The cells on the test plate were treated with the compounds of the general formula (I) as and incubated at 37° C. for 72 h. The compounds were added to the cells by means of an HP D300 digital dispenser in a 10-step 2,5-fold dilution series generally starting at a maximum final drug concentration of 100 nM, or 30 μM in the case of COV318. As control, the cells were treated with vehicle (DMSO at 0.3% final concentration). After 72 h, the cells were treated with 30 μl/cavity of CTG solution (Promega Cell Titer Glo (catalogue #G755B and G756B)) and incubated at room temperature for 10 min, and luminescence was measured by means of a VICTOR V (Perkin Elmer), in order to determine cell viability at the end of treatment. The percentage effect on cell growth and the IC50 derived therefrom were determined for each test substance using the values from the 0 h plate (=maximum inhibition) and the DMSO control (=minimum inhibition). The IC50 values were calculated using a 4-parameter fit.
Background: In ATP-based viability assays light output follows the ATP content of the culture.

For the next assay, the system named is SK-MEL-3 cells. Described as above. The assay is classed as cell-based. The settings on record: Homo sapiens, SK-MEL3; anti-proliferation, SK-MEL-3, 72 h. Here is the method:
as §1

In the next assay the target is human full length PDE3A (Homo sapiens (Human), UniProt Q14432). As to the kind of experiment: PDE3A enzyme inhibition (3H-cAMP Scintillation Proximity Assay). The class given is biochemical. The settings on record: Sf9 cell extract, 60 min room temperature. As to the method: (§2) The commercially available 3H-cAMP Scintillation Proximity Assay (SPA, Perkin Elmer) system was used for enzyme inhibition studies. For the determination of the in vitro effect of example compounds on the PDE3A reactions 2 μl of the respective example compound solution in DMSO (serial dilutions) were placed in wells of microtiter plates (Isoplate-96/200W; Perkin Elmer). 50 μl of a dilution of PDE3A cell extract from Sf9 cells overexpressing human full length PDE3A (SB Drug Discovery, UK) in buffer A (50 mM Tris/HCl pH 7.5, 8.3 mM MgCl2, 1.7 mM EDTA, 0.2% BSA) was added. The dilution of the PDE3A cell extract was chosen such that the reaction kinetics was linear and less than 70% of the substrate was consumed (typical dilution 1:5000). The reaction was started by addition of 50 μl (0.025 μCi) of 1:2000 in buffer A w/o BSA diluted substrate [8-3H]adenosine 3′, 5′-cyclic phosphate (1 μCi/μl; Perkin Elmer). After incubation at room temperature for 60 min, the reaction was stopped by addition of 25 μl of a suspension containing 18 mg/ml yttrium scintillation proximity beads (Perkin Elmer) in water. The microtiter plates were sealed and measured in a Microbeta scintillation counter (PerkinElmer Wallac). IC50 values were determined from sigmoidal curves by plotting percentage PDE3A activity vs log compound concentration.
In general terms: SPA uses beads or plates that emit light when radiolabelled molecules are held near them.

A further assay has as its target human full length PDE3B (Homo sapiens (Human), UniProt Q13370). As to the kind of experiment: PDE3B enzyme inhibition (3H-cAMP Scintillation Proximity Assay). The class given is biochemical. To be noted: Sf9 cell extract, 60 min room temperature. Here is the method: as §2, with “PDE3B” for “PDE3A”, “1:6000).” for “1:5000).”

human full length PDE3A, sequence (Q14432 whole entry): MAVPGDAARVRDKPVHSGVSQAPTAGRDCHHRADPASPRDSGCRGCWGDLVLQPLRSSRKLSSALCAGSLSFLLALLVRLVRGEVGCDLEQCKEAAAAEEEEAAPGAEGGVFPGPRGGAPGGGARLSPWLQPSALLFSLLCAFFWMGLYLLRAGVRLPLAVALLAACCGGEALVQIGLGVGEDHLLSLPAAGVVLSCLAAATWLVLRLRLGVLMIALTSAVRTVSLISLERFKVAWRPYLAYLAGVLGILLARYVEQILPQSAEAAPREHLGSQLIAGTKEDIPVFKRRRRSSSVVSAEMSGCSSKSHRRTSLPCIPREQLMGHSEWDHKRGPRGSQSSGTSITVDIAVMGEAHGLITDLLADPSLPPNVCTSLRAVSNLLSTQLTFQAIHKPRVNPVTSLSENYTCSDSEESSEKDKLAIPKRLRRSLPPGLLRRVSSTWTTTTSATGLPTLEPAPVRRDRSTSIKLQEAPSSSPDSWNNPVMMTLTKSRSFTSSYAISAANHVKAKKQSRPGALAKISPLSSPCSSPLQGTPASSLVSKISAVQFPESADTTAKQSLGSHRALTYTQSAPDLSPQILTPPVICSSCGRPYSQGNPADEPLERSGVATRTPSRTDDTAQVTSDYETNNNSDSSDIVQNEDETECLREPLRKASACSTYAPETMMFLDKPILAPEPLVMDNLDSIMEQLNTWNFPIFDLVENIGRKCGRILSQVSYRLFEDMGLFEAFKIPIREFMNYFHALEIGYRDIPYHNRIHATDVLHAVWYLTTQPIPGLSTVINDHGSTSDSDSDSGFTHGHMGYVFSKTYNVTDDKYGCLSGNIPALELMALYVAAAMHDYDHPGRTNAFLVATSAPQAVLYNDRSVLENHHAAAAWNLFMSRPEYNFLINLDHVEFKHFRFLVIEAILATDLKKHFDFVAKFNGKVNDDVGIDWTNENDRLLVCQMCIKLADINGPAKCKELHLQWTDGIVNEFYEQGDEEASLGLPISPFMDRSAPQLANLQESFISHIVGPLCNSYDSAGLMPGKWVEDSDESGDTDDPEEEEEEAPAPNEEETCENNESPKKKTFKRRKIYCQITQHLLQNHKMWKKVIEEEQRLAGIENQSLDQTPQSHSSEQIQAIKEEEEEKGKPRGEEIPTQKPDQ
human full length PDE3B, sequence (Q13370 whole entry): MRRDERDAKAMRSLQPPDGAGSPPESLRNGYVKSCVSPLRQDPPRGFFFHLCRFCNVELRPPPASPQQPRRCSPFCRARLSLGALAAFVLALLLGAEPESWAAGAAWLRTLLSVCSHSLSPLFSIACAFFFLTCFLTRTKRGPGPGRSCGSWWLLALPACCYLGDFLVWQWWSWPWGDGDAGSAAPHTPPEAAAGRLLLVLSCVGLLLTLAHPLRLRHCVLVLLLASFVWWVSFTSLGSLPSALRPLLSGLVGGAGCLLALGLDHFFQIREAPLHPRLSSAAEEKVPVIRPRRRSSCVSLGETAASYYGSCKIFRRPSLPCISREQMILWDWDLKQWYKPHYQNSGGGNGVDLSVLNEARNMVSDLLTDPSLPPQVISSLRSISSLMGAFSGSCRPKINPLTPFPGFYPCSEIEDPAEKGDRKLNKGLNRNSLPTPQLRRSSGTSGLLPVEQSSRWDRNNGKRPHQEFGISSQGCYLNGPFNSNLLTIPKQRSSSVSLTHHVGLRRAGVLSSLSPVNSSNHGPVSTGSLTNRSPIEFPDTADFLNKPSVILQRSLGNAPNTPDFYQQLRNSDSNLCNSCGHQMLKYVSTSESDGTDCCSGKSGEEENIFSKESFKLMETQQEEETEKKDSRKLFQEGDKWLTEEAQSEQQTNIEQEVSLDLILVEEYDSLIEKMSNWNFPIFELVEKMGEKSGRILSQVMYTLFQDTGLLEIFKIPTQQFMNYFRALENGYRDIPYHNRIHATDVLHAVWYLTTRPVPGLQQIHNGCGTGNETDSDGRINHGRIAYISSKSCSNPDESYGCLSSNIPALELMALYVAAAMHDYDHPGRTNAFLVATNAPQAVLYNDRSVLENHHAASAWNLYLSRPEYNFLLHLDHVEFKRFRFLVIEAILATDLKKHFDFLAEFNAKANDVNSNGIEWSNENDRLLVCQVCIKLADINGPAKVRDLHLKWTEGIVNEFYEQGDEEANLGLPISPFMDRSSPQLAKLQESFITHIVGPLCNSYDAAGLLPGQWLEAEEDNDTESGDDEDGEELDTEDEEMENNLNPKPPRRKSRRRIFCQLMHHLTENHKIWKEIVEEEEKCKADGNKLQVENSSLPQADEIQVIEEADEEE

For the compound `C[C@@H]1NC(=O)NN=C1c1ccc(NCc2ccn[nH]2)c(C(F)(F)F)c1` [Example 2, (5S)-5-methyl-6-[4-{[(1H-pyrazol-5-yl)methyl]amino}-3-(trifluoromethyl)phenyl]-4,5-dihydro-1,2,4-triazin-3(2H)-one], the 50% inhibitory concentration (IC50) with HeLa cells was determined as 0.7 nM; with SK-MEL-3 cells, 0.3 nM; on human full length PDE3A, 5 nM; against human full length PDE3B, 6 nM.

For `C[C@@H]1NC(=O)NN=C1c1ccc(N2CC(C)(O)C2)c(C(F)(F)F)c1` [Example 3, (5S)-6-[4-(3-hydroxy-3-methylazetidin-1-yl)-3-(trifluoromethyl)phenyl]-5-methyl-4,5-dihydro-1,2,4-triazin-3(2H)-one], the IC50 with HeLa cells worked out at 0.1 nM; in the assay on SK-MEL-3 cells, 0.3 nM; against human full length PDE3A it was 2 nM; against human full length PDE3B, 1 nM.

Consider `C[C@@H]1NC(=O)NN=C1c1ccc(NC2CCCC2)c(C(F)(F)F)c1` [Example 4, (5S)-6-[4-(cyclopentylamino)-3-(trifluoromethyl)phenyl]-5-methyl-4,5-dihydro-1,2,4-triazin-3(2H)-one], for which the IC50 in the assay with HeLa cells worked out at 0.1 nM; in the assay on SK-MEL-3 cells, 0.4 nM; against human full length PDE3A it was 2 nM; against human full length PDE3B, 1 nM.

As for `C[C@@H]1NC(=O)NN=C1c1ccc(NC[C@@H](O)C(F)(F)F)c(C(F)(F)F)c1` [Example 5, (5S)-5-methyl-6-[4-{[(2R)-3,3,3-trifluoro-2-hydroxypropyl]amino}-3-(trifluoromethyl)phenyl]-4,5-dihydro-1,2,4-triazin-3(2H)-one], the IC50 with HeLa cells was 0.2 nM; in the assay with SK-MEL-3 cells, 0.6 nM; at human full length PDE3A it was 4 nM; at human full length PDE3B it was 5 nM.

On to `C[C@@H]1NC(=O)NN=C1c1ccc(NCc2cnccn2)c(C(F)(F)F)c1` [Example 6, (5S)-5-methyl-6-[4-{[(pyrazin-2-yl)methyl]amino}-3-(trifluoromethyl)phenyl]-4,5-dihydro-1,2,4-triazin-3(2H)-one], for which the IC50 with HeLa cells was 0.3 nM; in the assay with SK-MEL-3 cells, 0.7 nM; on human full length PDE3A, 4 nM; at human full length PDE3B, 5 nM.
